Assay results reported in PMC6704710, “Preclinical evaluation of 3D185, a novel potent inhibitor of FGFR1/2/3 and CSF-1R, in FGFR-dependent and macrophage-dominant cancer models” (Journal of Experimental & Clinical Cancer Research : CR, 2019).
Read-outs that look alike come from different tables or passages of the source.

Tests used:
ALK2(h) = target: T1, ALK2(h) (Homo sapiens, UniProt Q04771); experiment: Eurofins kinase panel; format: biochemical; details: read-out: Inhibition rate (%)
T1 construct: purchased Eurofins (KinaseProfiler)
T1 sequence (Q04771 21-509): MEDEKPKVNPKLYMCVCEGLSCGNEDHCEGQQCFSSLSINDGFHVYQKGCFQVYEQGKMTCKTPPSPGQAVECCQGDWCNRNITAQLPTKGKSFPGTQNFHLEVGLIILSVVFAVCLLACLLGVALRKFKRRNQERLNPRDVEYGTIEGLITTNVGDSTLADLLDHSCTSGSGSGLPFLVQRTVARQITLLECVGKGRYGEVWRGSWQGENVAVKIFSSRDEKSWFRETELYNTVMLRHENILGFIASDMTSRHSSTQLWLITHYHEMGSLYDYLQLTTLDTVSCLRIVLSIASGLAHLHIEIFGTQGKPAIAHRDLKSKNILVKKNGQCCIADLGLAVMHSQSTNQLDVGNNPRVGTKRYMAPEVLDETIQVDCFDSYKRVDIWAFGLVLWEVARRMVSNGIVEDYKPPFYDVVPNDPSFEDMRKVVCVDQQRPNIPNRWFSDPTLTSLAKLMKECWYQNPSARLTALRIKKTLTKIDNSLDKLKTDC

MAPKAP-K2(h) = target: T2, MAPKAP-K2(h) (Homo sapiens, UniProt P49137); experiment: Eurofins kinase panel; format: biochemical; details: read-out: Inhibition rate (%)
T2 construct: purchased Eurofins (KinaseProfiler)

MSK1(h) = target: T3, MSK1(h) (Homo sapiens, UniProt O75582); experiment: Eurofins kinase panel; format: biochemical; details: read-out: Inhibition rate (%)
T3 construct: purchased Eurofins (KinaseProfiler)

PKBα(h) = target: T4, PKBα(h) (Homo sapiens, UniProt P31749); experiment: Eurofins kinase panel; format: biochemical; details: read-out: Inhibition rate (%)
T4 construct: purchased Eurofins (KinaseProfiler)

PKCι(h) = target: T5, PKCι(h) (Homo sapiens, UniProt P41743); experiment: Eurofins kinase panel; format: biochemical; details: read-out: Inhibition rate (%)
T5 construct: purchased Eurofins (KinaseProfiler)
T5 sequence (P41743 1-596): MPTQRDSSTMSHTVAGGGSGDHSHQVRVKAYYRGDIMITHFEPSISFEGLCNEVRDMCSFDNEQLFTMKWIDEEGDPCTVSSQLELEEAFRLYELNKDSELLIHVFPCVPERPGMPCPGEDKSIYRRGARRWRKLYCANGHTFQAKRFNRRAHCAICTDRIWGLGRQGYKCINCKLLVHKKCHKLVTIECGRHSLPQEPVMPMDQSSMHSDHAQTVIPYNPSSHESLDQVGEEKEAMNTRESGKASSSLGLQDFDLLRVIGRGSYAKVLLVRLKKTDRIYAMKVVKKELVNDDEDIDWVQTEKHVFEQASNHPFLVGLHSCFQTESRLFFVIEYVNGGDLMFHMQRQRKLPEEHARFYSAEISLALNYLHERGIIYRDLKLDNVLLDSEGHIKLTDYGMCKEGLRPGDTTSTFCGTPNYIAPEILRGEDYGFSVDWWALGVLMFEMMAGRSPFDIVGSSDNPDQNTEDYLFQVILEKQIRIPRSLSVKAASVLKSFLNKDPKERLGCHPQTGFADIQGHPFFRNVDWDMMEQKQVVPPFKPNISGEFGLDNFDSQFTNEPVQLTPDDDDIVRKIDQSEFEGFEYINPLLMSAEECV

CDK13/cyclinK(h) = target: T6, CDK13/cyclinK(h) (Homo sapiens, UniProt Q14004); experiment: Eurofins kinase panel; format: biochemical; details: read-out: Inhibition rate (%)
T6 construct: purchased Eurofins (KinaseProfiler)
Description: (§1) Active FGFR1–4, VEGFR1, KDR, VEGFR3, PDGFRα and PDGFRβ proteins were purchased from Eurofins (Fremont, United States), and kinase activity was assessed using ELISA, as previously reported. The broader kinase selectivity profile of 3D185 (0.01, 0.1, and 1 μM) was determined by Eurofins by screening the compound against 372 human recombinant kinases. Increasing concentrations of ATP were diluted for the kinase reaction in the ATP competition assay. CSF-1R kinase activity was analyzed using the Z’-LYTE™ Kinase Assay Kit (Thermo Fisher, United States). The assay formats are described in the SelectScreen Kinase Profiling Service Zlyte protocol. IC50 values were calculated by dose-response curve fitting using Prism (Graph Pad).

PRP4(h) = target: T7, PRP4(h) (Homo sapiens, UniProt Q13523); experiment: Eurofins kinase panel; format: biochemical; details: read-out: Inhibition rate (%)
T7 construct: purchased Eurofins (KinaseProfiler)
Description: as §1

WNK3(h) = target: T8, WNK3(h) (Homo sapiens, UniProt Q9BYP7); experiment: Eurofins kinase panel; format: biochemical; details: read-out: Inhibition rate (%)
T8 construct: purchased Eurofins (KinaseProfiler)

[1] = test system: 11 FGFR- or CSF-1R-dependent cancer cell lines; experiment: Cell proliferation assay, sensitive panel; format: cell-based
Description: The cancer cell lines indicated in Figure 3 were seeded in 96-well plates at a low density in growth medium. The next day, appropriate controls or the designated concentrations of the compounds were added to each well, and the cells were incubated for 72 h. HUVECs (passage 3) were seeded in 96-well plates in growth medium overnight and transferred to serum-free medium for 24 h. The following day, appropriate controls or the designated concentrations of the compounds were added to each well, and 100 ng/mL growth factor (bFGF or VEGF) was added to the indicated wells. The cells were incubated for 48 h. Finally, cell proliferation was determined using a sulforhodamine B (SRB) assay or a cell counting kit-8 (CCK-8) assay. […] IC50 values for proliferation curves were calculated using a 4-parameter logistic nonlinear regression model with SoftMax Pro Software (Molecular Devices, San Jose, USA).

[2] = test system: NCI-H1581 subcutaneous xenograft; format: in vivo; details: 50 mg/kg oral once daily 14 days
Description: […]. When the tumor volume reached 100–150 mm^3, the mice were randomly assigned to the vehicle control group (n = 12) or a treatment group (n = 6 per group). […].
The tumors were measured twice per week using a microcaliper. Tumor volume (TV) was calculated as follows: TV = (length × width^2)/2. In addition, the individual relative tumor volume (RTV) was calculated as follows: RTV = Vt / V0, where Vt is the volume on a particular day and V0 is the volume at the beginning of the treatment. The RTV is shown on the indicated days as the […] ± SEM for the indicated groups of mice. […]

[3] = test system: ERK phosphorylation in NCI-H1581 tumors; experiment: Pharmacodynamic study, intratumoral p-ERK; details: 6 h after single oral dose of 12.5, 25 or 50 mg/kg

T6 sequence (Q14004 whole entry): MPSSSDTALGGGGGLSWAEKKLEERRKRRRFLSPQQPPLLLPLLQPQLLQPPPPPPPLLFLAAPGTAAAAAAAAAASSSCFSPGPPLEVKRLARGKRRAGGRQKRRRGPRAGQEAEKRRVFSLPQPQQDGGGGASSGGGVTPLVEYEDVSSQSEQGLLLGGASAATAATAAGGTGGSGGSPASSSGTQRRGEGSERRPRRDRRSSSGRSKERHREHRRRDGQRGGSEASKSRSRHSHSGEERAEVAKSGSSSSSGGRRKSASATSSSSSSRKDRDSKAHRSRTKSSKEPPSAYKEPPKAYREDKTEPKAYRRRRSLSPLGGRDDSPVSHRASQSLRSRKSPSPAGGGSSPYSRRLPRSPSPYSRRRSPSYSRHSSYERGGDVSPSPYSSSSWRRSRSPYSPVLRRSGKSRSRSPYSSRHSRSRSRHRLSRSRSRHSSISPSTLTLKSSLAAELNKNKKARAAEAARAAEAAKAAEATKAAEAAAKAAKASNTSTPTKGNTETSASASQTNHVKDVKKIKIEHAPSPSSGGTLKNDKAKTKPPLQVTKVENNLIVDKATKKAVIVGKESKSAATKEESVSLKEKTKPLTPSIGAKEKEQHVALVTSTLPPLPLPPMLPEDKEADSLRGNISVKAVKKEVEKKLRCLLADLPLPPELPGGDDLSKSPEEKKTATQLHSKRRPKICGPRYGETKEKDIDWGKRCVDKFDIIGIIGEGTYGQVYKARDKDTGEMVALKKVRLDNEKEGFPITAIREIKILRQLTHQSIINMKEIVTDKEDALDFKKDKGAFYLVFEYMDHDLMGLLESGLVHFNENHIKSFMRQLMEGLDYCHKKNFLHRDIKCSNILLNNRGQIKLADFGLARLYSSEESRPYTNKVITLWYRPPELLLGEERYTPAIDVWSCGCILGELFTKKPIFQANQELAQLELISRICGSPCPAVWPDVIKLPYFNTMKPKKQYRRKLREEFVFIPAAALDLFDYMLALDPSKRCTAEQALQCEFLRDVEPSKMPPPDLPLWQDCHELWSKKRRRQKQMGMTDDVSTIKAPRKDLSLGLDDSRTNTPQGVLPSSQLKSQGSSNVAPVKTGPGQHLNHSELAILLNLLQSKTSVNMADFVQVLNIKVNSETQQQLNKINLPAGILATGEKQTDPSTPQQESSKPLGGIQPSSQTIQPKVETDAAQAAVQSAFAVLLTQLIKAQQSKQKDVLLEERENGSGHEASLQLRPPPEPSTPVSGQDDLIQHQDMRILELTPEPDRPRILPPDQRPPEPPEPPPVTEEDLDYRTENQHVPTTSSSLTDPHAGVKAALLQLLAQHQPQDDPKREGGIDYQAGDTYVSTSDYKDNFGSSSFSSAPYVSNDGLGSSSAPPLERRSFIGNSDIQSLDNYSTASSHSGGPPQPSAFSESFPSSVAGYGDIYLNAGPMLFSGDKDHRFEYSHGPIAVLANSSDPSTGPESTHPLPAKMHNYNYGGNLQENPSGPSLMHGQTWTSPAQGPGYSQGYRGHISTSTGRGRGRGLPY
T6 sequence (O75909 whole entry partner): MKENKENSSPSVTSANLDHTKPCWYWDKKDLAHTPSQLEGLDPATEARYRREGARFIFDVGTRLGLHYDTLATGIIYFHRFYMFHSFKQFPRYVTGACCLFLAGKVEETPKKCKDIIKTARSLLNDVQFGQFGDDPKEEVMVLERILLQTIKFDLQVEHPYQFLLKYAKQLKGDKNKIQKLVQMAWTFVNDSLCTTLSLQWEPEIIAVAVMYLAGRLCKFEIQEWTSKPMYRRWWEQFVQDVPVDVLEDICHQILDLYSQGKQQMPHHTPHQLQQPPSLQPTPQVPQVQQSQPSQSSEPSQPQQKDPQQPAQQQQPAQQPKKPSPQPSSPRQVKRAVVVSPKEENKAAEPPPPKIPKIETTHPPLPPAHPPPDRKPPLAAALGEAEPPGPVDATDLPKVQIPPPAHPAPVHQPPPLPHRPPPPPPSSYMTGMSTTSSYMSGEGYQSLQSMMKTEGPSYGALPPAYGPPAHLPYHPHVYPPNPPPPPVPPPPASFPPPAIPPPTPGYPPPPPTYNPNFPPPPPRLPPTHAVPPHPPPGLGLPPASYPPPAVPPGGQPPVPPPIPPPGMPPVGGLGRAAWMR
T2 sequence (P49137 whole entry): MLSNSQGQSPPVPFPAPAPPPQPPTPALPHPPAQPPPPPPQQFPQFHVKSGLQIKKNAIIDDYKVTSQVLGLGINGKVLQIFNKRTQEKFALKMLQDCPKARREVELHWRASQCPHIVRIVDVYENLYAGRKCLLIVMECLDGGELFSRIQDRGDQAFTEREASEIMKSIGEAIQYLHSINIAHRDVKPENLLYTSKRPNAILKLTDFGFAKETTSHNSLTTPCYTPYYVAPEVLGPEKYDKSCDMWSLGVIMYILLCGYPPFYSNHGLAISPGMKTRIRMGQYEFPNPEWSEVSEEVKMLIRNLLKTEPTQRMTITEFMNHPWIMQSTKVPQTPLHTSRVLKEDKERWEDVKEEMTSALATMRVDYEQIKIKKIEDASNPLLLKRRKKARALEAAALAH
T7 sequence (Q13523 whole entry): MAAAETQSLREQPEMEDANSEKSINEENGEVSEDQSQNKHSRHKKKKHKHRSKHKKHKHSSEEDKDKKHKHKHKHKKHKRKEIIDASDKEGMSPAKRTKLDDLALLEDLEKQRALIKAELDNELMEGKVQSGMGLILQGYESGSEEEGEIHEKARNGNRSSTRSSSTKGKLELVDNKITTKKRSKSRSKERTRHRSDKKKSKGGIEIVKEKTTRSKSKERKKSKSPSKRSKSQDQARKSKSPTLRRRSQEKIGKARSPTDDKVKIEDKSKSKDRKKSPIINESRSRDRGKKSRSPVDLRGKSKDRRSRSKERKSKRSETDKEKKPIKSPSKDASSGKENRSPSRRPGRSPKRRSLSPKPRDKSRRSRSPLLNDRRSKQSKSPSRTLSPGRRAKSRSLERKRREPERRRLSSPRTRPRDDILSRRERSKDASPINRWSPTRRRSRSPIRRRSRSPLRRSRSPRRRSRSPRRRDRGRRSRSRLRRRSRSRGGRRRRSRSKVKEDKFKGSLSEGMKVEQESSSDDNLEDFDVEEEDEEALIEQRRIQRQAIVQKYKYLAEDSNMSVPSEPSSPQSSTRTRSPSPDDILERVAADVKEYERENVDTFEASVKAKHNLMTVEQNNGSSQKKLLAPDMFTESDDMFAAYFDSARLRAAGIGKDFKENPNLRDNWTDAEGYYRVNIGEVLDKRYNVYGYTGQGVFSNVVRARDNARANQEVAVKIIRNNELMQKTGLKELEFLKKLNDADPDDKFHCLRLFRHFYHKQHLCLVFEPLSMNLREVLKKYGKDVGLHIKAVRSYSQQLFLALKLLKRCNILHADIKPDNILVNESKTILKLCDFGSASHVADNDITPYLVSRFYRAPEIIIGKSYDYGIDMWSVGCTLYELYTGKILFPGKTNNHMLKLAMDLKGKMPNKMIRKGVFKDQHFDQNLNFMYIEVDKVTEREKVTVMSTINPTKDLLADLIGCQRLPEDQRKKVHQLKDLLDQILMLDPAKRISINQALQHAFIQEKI
T3 sequence (O75582 whole entry): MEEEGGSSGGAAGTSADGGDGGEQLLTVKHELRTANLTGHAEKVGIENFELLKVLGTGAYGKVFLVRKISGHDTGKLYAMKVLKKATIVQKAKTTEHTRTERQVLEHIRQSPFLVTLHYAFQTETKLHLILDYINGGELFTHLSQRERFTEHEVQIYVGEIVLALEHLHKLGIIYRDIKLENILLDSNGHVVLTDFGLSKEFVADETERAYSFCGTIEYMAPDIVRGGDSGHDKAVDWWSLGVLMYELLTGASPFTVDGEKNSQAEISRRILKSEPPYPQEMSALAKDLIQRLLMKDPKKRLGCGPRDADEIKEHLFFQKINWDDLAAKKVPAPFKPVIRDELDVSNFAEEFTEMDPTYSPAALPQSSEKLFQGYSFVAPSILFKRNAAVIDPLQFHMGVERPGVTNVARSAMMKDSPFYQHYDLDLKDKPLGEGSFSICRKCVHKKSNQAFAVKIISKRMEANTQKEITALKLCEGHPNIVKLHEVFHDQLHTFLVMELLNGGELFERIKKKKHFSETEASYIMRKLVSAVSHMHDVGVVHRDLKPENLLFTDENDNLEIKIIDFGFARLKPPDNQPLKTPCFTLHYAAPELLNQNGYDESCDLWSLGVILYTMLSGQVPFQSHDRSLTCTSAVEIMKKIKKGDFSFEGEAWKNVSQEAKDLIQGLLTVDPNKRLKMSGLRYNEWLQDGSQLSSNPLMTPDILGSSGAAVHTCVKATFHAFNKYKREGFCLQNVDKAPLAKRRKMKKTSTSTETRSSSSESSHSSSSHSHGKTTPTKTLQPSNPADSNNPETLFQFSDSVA
T4 sequence (P31749 whole entry): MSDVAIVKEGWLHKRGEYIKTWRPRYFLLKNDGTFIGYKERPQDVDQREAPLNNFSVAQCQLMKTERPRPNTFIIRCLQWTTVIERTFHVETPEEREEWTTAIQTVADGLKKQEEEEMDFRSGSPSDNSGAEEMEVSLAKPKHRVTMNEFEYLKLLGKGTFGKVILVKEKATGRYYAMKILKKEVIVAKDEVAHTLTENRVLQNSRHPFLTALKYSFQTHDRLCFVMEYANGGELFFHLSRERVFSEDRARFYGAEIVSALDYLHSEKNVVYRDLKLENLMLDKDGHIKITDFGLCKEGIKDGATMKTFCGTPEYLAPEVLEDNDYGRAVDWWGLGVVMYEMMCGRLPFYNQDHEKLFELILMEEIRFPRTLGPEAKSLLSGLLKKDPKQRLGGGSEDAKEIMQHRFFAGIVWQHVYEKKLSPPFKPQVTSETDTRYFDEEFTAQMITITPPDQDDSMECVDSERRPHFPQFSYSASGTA

For `COc1cc(OC)c(Cl)c(-c2ccc3c(NC(=O)c4ccc(N5CCNC(C)(C)C5)cc4)n[nH]c3n2)c1Cl` [3D185], the inhibition at 0.01 µM (ALK2(h); 10 nM) was -10%, the inhibition at 0.1 µM (ALK2(h); 100 nM) was -15% and the inhibition at 1 µM (ALK2(h); 1000 nM) was -4%. It also gave an inhibition at 0.01 µM (MAPKAP-K2(h); 10 nM) of 0%, an inhibition at 0.1 µM (MAPKAP-K2(h); 100 nM) of 10% and an inhibition at 1 µM (MAPKAP-K2(h); 1000 nM) of 0%. The inhibition at 0.01 µM (MSK1(h); 10 nM) was 31%, the inhibition at 0.1 µM (MSK1(h); 100 nM) was 19% and the inhibition at 1 µM (MSK1(h); 1000 nM) was 24%. The inhibition at 0.01 µM (PKBα(h); 10 nM) was -6%, the inhibition at 0.1 µM (PKBα(h); 100 nM) was -8% and the inhibition at 1 µM (PKBα(h); 1000 nM) was -7%. The inhibition at 0.01 µM (PKCι(h); 10 nM) was -1%, the inhibition at 0.1 µM (PKCι(h); 100 nM) was 0% and the inhibition at 1 µM (PKCι(h); 1000 nM) was -1%. It also gave an inhibition at 0.01 µM (CDK13/cyclinK(h); 10 nM) of -16%, an inhibition at 0.1 µM (CDK13/cyclinK(h); 100 nM) of 8% and an inhibition at 1 µM (CDK13/cyclinK(h); 1000 nM) of 1%. It also gave an inhibition at 0.01 µM (PRP4(h); 10 nM) of -8%, an inhibition at 0.1 µM (PRP4(h); 100 nM) of -9% and an inhibition at 1 µM (PRP4(h); 1000 nM) of -1%. For the same molecule, the inhibition at 0.01 µM (WNK3(h); 10 nM) was -7%, the inhibition at 0.1 µM (WNK3(h); 100 nM) was 12% and the inhibition at 1 µM (WNK3(h); 1000 nM) was 71%. The IC50 ([1]; FGFR1-, FGFR2-, FGFR3- and CSF-1R-mediated proliferation, read-out: IC50 values, range over cell lines) was 0.0009 to 0.0368 µM, the IC50 ([1]; mean over CSF-1R dependent and FGFRs dependent lines, read-out: Mean IC50) was 0.0173 µM and the “tumor growth inhibition rate” value [2] was 96.4%. For the same molecule, the “intratumoral ERK phosphorylation” value [3] was “nearly complete inhibition of ERK phosphorylation”.
